These results are taken from patent publication US8557823B2, “Family of PFKFB3 inhibitors with anti-neoplastic activities” (Advanced Cancer Therapeutics, LLC, priority 2007, dated 2013).

For experiment [1], the system named is Lewis Lung Carcinoma xenografts. The experiment is described as follows: Lewis Lung Carcinoma xenografts in C57/Blk6 mice. The experiment is classed as in vivo. The note with it: 0.07 mg/g IP once daily, 14 days. The method, then: FIG. 7A is a graph showing the effects of 3PO treatment on the growth of Lewis Lung Carcinoma tumor xenografts in C57/Blk6 mice. Tumors were measured daily using blunt end Vernier calipers, and mice with established tumors (130-190 mg) were blindly randomized into either a DMSO control group (•, n=11) or a 3PO treatment group (∘, n=14). Experimental mice were weighed and given daily intraperitoneal (i.p.) injections of either 50 μL DMSO or 0.07 mg/g 3PO in 50 μL DMSO at the indicated time points. Arrows (↓) represent control or 3PO daily administrations. Statistically significant difference between DMSO and 3PO groups was obtained after initial injection (Day 2, p-value<0.0003).
Exponentially growing MDA-MB231 and HL-60 cells were collected in appropriate medium, washed twice and resuspended in PBS at a concentration of 20×10^7 cells/mL. […] Body weight and tumor growth were monitored daily throughout the study. Tumor masses were determined by measurement with Vernier calipers using the formula: mass (mg)=[width (mm^2)×length (mm)]/2. […]
The first tumor model tested consisted of mouse Lewis Lung Carcinoma xenografts grown in C57/Blk6 mice. For this study, mice were given IP injections of either DMSO or the calculated dose of 1 once daily for the duration of the study (14 days). […]

The test system of experiment [2] is melanoma (CRL-11174) cells. Briefly: In vitro growth inhibition, melanoma line. The experiment is classed as cell-based. The note with it: Homo sapiens. The method, then: (§1) The K562, HL-60, MDA-MB231, and melanoma (CRL-11174) human cancer cell lines were purchased from ATCC (American Tissue Type Culture Collection, Manassas, Va., United States of America). HeLa, A549, Lewis Lung Carcinoma, MDA-MB231, and melanoma cells were grown in Dulbecco's Modified Eagle Medium (DMEM) (Hyclone, Logan, Utah, United States of America) supplemented with 10% fetal bovine serum (Hyclone, Logan, Utah, United States of America) and 50 μg/mL gentamicin sulfate (Invitrogen, Carlsbad, Calif., United States of America). The HL-60, K562, and Jurkat cell lines were grown in RPMI-1640 medium (Hyclone, Logan, Utah, United States of America) supplemented with 10% fetal bovine serum and 50 μg/mL gentamicin sulfate. […]
(§2) Cells were collected 48 hours post-treatment, and cell number and viability were determined by trypan blue exclusion. […]

Experiment [3] deals with MDA-MB231 breast adenocarcinoma cells. The experiment is described as follows: In vitro growth inhibition, MDA-MB231. The note with it: Homo sapiens, MDA-MB-231. Type of experiment: cell-based. On the procedure: as §1, §2

The IC50 is the concentration that inhibits the measured activity by half. The low end stands for greater potency, the high end for weaker potency. As for `O=C(/C=C/c1cccnc1)c1ccncc1` [Compound 1, 3-(3-pyridinyl)-1-(4-pyridinyl)-2-propen-1-one], the “suppression of xenograft growth compared to DMSO control” value in experiment [1] is reported as 73%. For the same compound, the IC50 in experiment [2] is 15 µM; in experiment [3] it was 4.7 µM.
